The values that follow come from US20110306573A1, “NUCLEOSIDE DERIVATIVES AS INHIBITORS OF VIRAL POLYMERASES” (priority 2008, published 2011).

T1 sequence (P26663 2420-2955): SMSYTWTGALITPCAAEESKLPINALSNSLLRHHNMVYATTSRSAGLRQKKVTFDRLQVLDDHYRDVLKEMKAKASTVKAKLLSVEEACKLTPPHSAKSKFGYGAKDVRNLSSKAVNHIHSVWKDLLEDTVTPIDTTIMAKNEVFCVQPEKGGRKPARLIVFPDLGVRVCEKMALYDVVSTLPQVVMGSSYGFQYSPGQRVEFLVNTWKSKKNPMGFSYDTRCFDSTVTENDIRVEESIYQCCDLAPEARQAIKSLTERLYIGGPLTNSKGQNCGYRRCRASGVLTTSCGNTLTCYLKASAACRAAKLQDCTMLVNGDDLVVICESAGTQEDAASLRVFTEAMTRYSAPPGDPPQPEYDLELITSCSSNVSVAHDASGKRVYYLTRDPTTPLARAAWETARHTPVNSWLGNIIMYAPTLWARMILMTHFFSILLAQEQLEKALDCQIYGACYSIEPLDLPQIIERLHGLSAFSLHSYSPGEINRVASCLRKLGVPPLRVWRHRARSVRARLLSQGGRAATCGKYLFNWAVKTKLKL

This assay addresses T1, HCV NS5B polymerase (Hepatitis C virus genotype 1b, UniProt P26663).
T1 construct: RNA-dependent RNA polymerase (NS5B) of the hepatitis C virus (HCV)
Description: Assay for inhibition of HCV NS5B polymerase (RdRp, 3H-UTP incorporation on heteromeric RNA template). It counts as biochemical. To be noted: heterogeneous template dCoh, 2 nM DC55-lb.BK or 10 nM DC55-2b.2, NTPs 1 uM, room temperature 2 hours. The method, then:
The effectiveness of the compounds of the present invention as inhibitors of HCV NS5B RNA-dependent RNA polymerase (RdRp) was measured in the following assay.
This assay was used to measure the ability of the nucleoside derivatives of the present invention to inhibit the enzymatic activity of the RNA-dependent RNA polymerase (NS5B) of the hepatitis C virus (HCV) on a heteromeric RNA template.
Assay Buffer Conditions: (52.5 μL-total/reaction)
20 nM heterogeneous template dCoh
2.5 μl/reaction inhibitor compound in H2O
The compounds were tested at various concentrations up to 100 μM final concentration. Nucleoside derivatives were pipetted into wells of a 96-well plate. The enzyme diluted in the reaction buffer was pipetted into the wells and incubated at room temperature for 10 minutes; then the template dCoh was added and incubated for 10 minutes at room temperature. The reaction was initiated by addition of a mixture of nucleotide triphosphates (NTP's), including the radiolabeled UTP, and allowed to proceed at room temperature for 2 hours. Blank samples were done omitting the dCoh template. The reaction was quenched by addition of 50 ul TCA 20% (trichloroacetic acid)/NaPPi 20 mM and the plates were put in ice for 5 minutes. Then, the mixtures were filtered onto Unifilter GF/B 96-well plates (PerkinElmer), washed with TCA 2.5%. 50 ul/well of scintillator solution (Microscint 20, PerkinElmer) were added and the plates were counted in a scintillator counter.
The percentage of inhibition was calculated according to the following equation:
% Inhibition=[1−(cpm in test reaction−cpm in blank)/(cpm in control reaction−cpm in blank)]×100.
As a reminder, the IC50 is the midpoint of a concentration-inhibition curve. Lower therefore signals greater potency. `C[C@@]1(O)[C@H](O)[C@@H](COP(=O)(O)OP(=O)(O)OP(=O)(O)O)O[C@H]1n1cc(-c2ncco2)c2c(N)ncnc21` [Compound 11, 7-(2-C-methyl-5-triphospho-β-D-ribofuranosyl)-5-(1,3-oxazol-2-yl)-7H-pyrrolo[2,3-d]pyrimidin-4-amine] returned an IC50 of less than 1 µM.
For `C[C@@]1(F)[C@H](O)[C@@H](COP(=O)(O)OP(=O)(O)OP(=O)(O)O)O[C@H]1n1cc(-c2ncon2)c2c(N)ncnc21` [Compound 18, 7-(2-deoxy-2-fluoro-2-methyl-5-triphospho-β-D-ribofuranosyl)-5-(1,2,4-oxadiazol-3-yl)-7H-pyrrolo[2,3-d]pyrimidin-4-amine] the value was less than 1 µM; for `C[C@@]1(F)[C@H](O)[C@@H](COP(=O)(O)OP(=O)(O)OP(=O)(O)O)O[C@H]1n1cc(-c2ncco2)c2c(N)ncnc21` [Compound 19, 7-(2-deoxy-2-fluoro-2-methyl-5-triphospho-β-D-ribofuranosyl)-5-(1,3-oxazol-2-yl)-7H-pyrrolo[2,3-d]pyrimidin-4-amine], less than 1 µM; for `COc1nc(-c2cn([C@@H]3O[C@H](COP(=O)(O)OP(=O)(O)OP(=O)(O)O)[C@@H](O)[C@@]3(C)O)c3ncnc(N)c23)cs1` [Compound 13, 5-(2-methoxy-1,3-thiazol-4-yl)-7-(2-C-methyl-5-triphospho-β-D-ribofuranosyl)-7H-pyrrolo[2,3-d]pyrimidin-4-amine], less than 50 µM.
“7-(2-C-methyl-5-triphospho-β-D-ribofuranosyl)-5-(1-methyl-1H-tetrazol-5-yl)-7H-pyrrolo[2,3-d]pyrimidin-4-amine and 7-(2-C-methyl-5-triphospho-β-D-ribofuranosyl)-5-(2-methyl-2H-tetrazol-5-yl)-7H-pyrrolo[2,3-d]pyrimidin-4-amine [Compound 10]” showed an IC50 of less than 50 µM.
For `Cn1cc(-c2cn([C@@H]3O[C@H](COP(=O)(O)OP(=O)(O)OP(=O)(O)O)[C@@H](O)[C@@]3(C)O)c3ncnc(N)c23)nn1` [Compound 17, 7-(2-C-methyl-5-triphospho-β-D-ribofuranosyl)-5-(1-methyl-1H-1,2,3-triazol-4-yl)-7H-pyrrolo[2,3-d]pyrimidin-4-amine] the value was less than 50 µM.
`C[C@@]1(O)[C@H](O)[C@@H](COP(=O)(O)OP(=O)(O)OP(=O)(O)O)O[C@H]1n1cc(-c2ncccn2)c2c(N)ncnc21` [Compound 12, 7-(2-C-methyl-5-triphospho-β-D-ribofuranosyl)-5-pyrimidin-2-yl-7H-pyrrolo[2,3-d]pyrimidin-4-amine]: the 50% inhibitory concentration (IC50) is less than 50 µM.
For `C[C@@]1(O)[C@H](O)[C@@H](COP(=O)(O)OP(=O)(O)OP(=O)(O)O)O[C@H]1n1cc(-c2cc[nH]n2)c2c(N)ncnc21` [Compound 14, 7-(2-C-methyl-5-triphospho-β-D-ribofuranosyl)-5-(1H-pyrazol-5-yl)-7H-pyrrolo[2,3-d]pyrimidin-4-amine] the value was less than 1 µM.
